Measurements as given in ChEMBL document CHEMBL1129678, “Structure-activity relationships in a series of 2(1H)-quinolones bearing different acidic function in the 3-position: 6,7-dichloro-2(1H)-oxoquinoline-3-phosphonic acid, a new potent and selective AMPA/kainate antagonist with neuroprotective properties” (J Med Chem, 1996).
Active and inactive are the calls of the source. No cut-off for these calls is given here.

Key:
Glutamate NMDA receptor [1] = assay: Antagonistic activity against N-methyl-D-aspartate glutamate receptor 1 in Xenopus oocytes; type: functional, cell-based; conditions: oocyte
[2] = biological target: AMPA receptor (Rattus norvegicus); assay: Inhibitory activity against [3H]AMPA binding to rat cortical membranes
Mus musculus [3] = assay: Effective dose required to protect 50% of DBA/2 mice from audiogenic seizures, after ip administration; type: functional
[4] = biological target: Glutamate receptor ionotropic, kainate; assay: Antagonistic activity against rat ionotropic glutamate receptor ionotropic kainate in xenopus oocytes; type: functional, cell-based; conditions: oocyte
Glutamate NMDA receptor [5] = assay: Inhibitory activity against [3H]glycine binding site of N-methyl-D-aspartate glutamate receptor 1 in rat cortical membranes; type: cell membranes, Membrane
[6] = Selectivity between AMPA/kainate receptor and NMDA/glycine receptor; set-up: reference not given here
Mus musculus [7] = assay: Effective dose of a compound to […] 50% audiogenic seizures in DBA/2 mice when administered by ip (mg/Kg); type: functional
Gerbillinae [8] = assay: %Protection against transient global ischemia in adult Mongolian gerbil at dose 10 mg/kg by ip administration tested against 10; type: functional; conditions: route intraperitoneal
Gerbillinae [9] = assay: %Protection against transient global ischemia in adult Mongolian gerbil at dose 30 mg/kg by ip administration tested against 6; type: functional; conditions: route intraperitoneal
Mus musculus [10] = assay: Effective dose of a compound to […] 50% audiogenic seizures in DBA/2 mice when administered by po (mg/kg); Not active; type: functional, organism-based
Mus musculus [11] = assay: Effective dose required to protect 50% of DBA/2 mice from audiogenic seizures, after po administration; type: functional
Gerbillinae [12] = assay: %Protection against transient global ischemia in adult Mongolian gerbil at dose 30 mg/Kg by ip administration tested against 6; type: functional
Gerbillinae [13] = assay: %Protection against transient global ischemia in adult Mongolian gerbil at dose 10 mg/Kg by ip administration tested against 10; type: functional

Row | SMILES | IC50 (Glutamate NMDA receptor [1]) | IC50 [4] | Selectivity [6] | also measured
1 | O=[N+]([O-])c1cc2cc(NS(=O)(=O)C(F)(F)F)c(O)nc2cc1[N+](=O)[O-] | 0.16 µM | 0.16 µM | 1 | IC50 [2]: 90 nM; ED50 (Mus musculus [3]): > 50 mg/kg; IC50 (Glutamate NMDA receptor [5]): 1.38 µM
2 | O=P(O)(O)c1cc2c(Cl)cc(Cl)cc2nc1O | 30 µM | 4 µM | 7.5 | IC50 [2]: 3500 nM; ED50 (Mus musculus [7]): > 50 mg/kg; IC50 (Glutamate NMDA receptor [5]): 5.1 µM
3 | O=[N+]([O-])c1ccc2cc(-c3nnc(O)o3)c(O)nc2c1 | > 100 µM | > 100 µM |  | 
4 | O=P(O)(O)c1cc2cc(F)c(F)cc2nc1O | 111 µM | 65 µM | 1.71 | 
5 | O=C(O)c1cc2cc([N+](=O)[O-])c([N+](=O)[O-])cc2nc1O | 0.57 µM | 0.3 µM | 1.9 | IC50 [2]: 150 nM; ED50 (Mus musculus [3]): > 50 mg/kg; IC50 (Glutamate NMDA receptor [5]): 1.8 µM
6 | O=[N+]([O-])c1cc2cc(P(=O)(O)O)c(O)nc2cc1[N+](=O)[O-] | 51.5 µM | 0.15 µM | 343 | 
7 | O=C(O)c1cc2ccc([N+](=O)[O-])cc2nc1O | 6.5 µM | 1.3 µM | 5 | 
8 | O=C(O)c1cc2c(Cl)cc(Cl)cc2nc1O | 0.65 µM | 8 µM | 0.08 | 
9 | O=c1[nH]c2cc(Cl)c(Cl)cc2cc1P(=O)(O)O | 83.5 µM | 2.1 µM |  | IC50 [2]: 900 nM; IC50 (Glutamate NMDA receptor [5]): 111 µM
10 | O=C(O)CSc1cc2ccc([N+](=O)[O-])cc2nc1O | > 100 µM | 5 µM | > 20 | 
11 | O=[N+]([O-])c1cc2cc(-c3nn[nH]n3)c(O)nc2cc1[N+](=O)[O-] | 20 µM | 0.6 µM | 33 | 
12 | O=C(O)c1cc2cc(Cl)c(Cl)cc2nc1O | 0.81 µM | 10 µM | 0.08 | 
13 | O=P(O)(OCC1CCCC1)c1cc2cc(Cl)c(Cl)cc2nc1O | 74 µM | 15 µM | 5 | 
14 | CP(=O)(O)c1cc2c(Cl)cc(Cl)cc2nc1O | 51 µM | > 100 µM | < 0.5 | 
15 | CCOP(=O)(O)c1cc2cc(Cl)c(Cl)cc2nc1O | 40 µM | 15 µM | 2.6 | 
16 | O=c1[nH]c2cc(-n3ccnc3)c([N+](=O)[O-])cc2[nH]c1=O [YM-90K] | 30.5 µM | 0.3 µM | 102 | 
17 | OB(O)c1cc2c(Cl)cc(Cl)cc2nc1O | > 300 µM | > 100 µM |  | 
18 | NS(=O)(=O)c1cccc2c1c([N+](=O)[O-])cc1nc(O)c(O)nc12 [NBQX] | 255 µM |  |  | Protection (Gerbillinae [8]): 40%; Protection (Gerbillinae [9]): 50%; ED50 (Mus musculus [3]): 8 mg/kg; IC50 (Glutamate NMDA receptor [5]): > 500 µM; ED50 (Mus musculus [10]): inactive
19 | O=[N+]([O-])c1ccc2cc(P(=O)(O)O)c(O)nc2c1 | 57 µM | 1.4 µM | 41 | 
20 | O=C(Nc1nn[nH]n1)c1cc2ccc([N+](=O)[O-])cc2nc1O | > 16 µM | 100 µM | > 0.16 | 
21 | O=P(O)(O)c1cc2cc(Cl)c(Cl)cc2nc1O |  |  | 39.8 | ED50 (Mus musculus [11]): 45 mg/kg; Protection (Gerbillinae [12]): 100%; Protection (Gerbillinae [13]): 40%; ED50 (Mus musculus [3]): 19 mg/kg
22 | O=C(NO)c1cc2ccc([N+](=O)[O-])cc2nc1O | > 100 µM | 10 µM | > 10 | 
23 | O=c1[nH]c2cc([N+](=O)[O-])ccc2cc1-c1cc(O)n[nH]1 | > 100 µM | > 30 µM |  | 
24 | NC(=O)c1cc2ccc([N+](=O)[O-])cc2nc1O | > 300 µM | > 300 µM |  | 
25 | O=[N+]([O-])c1ccc2cc(-c3nn[nH]n3)c(O)nc2c1 | > 16 µM | 3 µM | > 5 | 
